Laboratory results from patent US20110053897A1 (IRM LLC, priority 2009, published 2011).

These compounds were tested against T1, Syk kinase (Homo sapiens, UniProt P43405) (assay: Syk kinase inhibition, Caliper LabChip off-chip mobility-shift kinase assay). Details: Caliper LabChip assay; read-out: Syk Enzyme IC50.
T1 construct: purchased
Format: biochemical
In short: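 Purified Syk pre-incubated 15 min with compound in 100 mM HEPES pH 7.5, 1 mM DTT, 10 mM MgCl2 or MnCl2, 0.002% Brij-35, then 1.5 μM fluorescein peptide and ATP at apparent KM added; 1–1.5 h at room temperature, 4% DMSO, EDTA stop. Microfluidic mobility-shift product/substrate conversion gave % inhibition; IC50 from 12-point series (10–0.00003 μM) by 4-parameter fit.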

IC50	SMILES
6 nM	CC(C)(C)Nc1nc(Nc2cnccn2)cc2ccn(C[C@H](O)CO)c(=O)c12 [compound 669]
28 nM	CC(C)(C)Nc1nc(Nc2cc(C3(CO)CC3)ccn2)cc2ccn(CCO)c(=O)c12 [compound 860]
50 nM	COc1cc(Nc2cc3ccn(CCO)c(=O)c3c(NC(C)(C)C)n2)ncn1 [compound 735]
6 nM	CC(C)(C)Nc1nc(-c2cnc(N)nc2)cc2ccn(C(CO)CO)c(=O)c12 [compound 922]
110 nM	CCn1ccc2cc(Nc3cnccn3)nc(NCC(F)(F)F)c2c1=O [compound 1044]
57 nM	CC(C)(CO)Nc1nc(-c2cnc(N)nc2)cc2ccn(CCO)c(=O)c12 [compound 902]
34 nM	CC(C)(C)Nc1nc(Nc2cnccn2)cc2ccn(C(C)(C)C(N)=O)c(=O)c12 [compound 672]
18.6 nM	CC(C)(C)Nc1nc(Nc2cc(CN3CC(O)C3)ccn2)cc2ccn(CCO)c(=O)c12 [Compound No. 600, 8-(tert-butylamino)-6-(4-((3-hydroxyazetidin-1-yl)methyl)pyridin-2-ylamino)-2-(2-hydroxyethyl)-2,7-naphthyridin-1(2H)-one]
271 nM	CC(C)(C)Nc1nc(Nc2cc(-c3ccccc3)ccn2)cc2ccn(CCO)c(=O)c12 [compound 829]
7 nM	O=c1[nH]ccc2cc(Nc3cnccn3)nc(NC3CCCC3)c12 [compound 766]
2 nM	Nc1ncc(-c2cc3ccn(CCO)c(=O)c3c(N[C@H]3CC[C@@H](CO)C3)n2)cn1 [compound 912]
285 nM	CC(C)(C)Nc1nc(Nc2cc(-c3cn[nH]c3)ncn2)cc2ccn(CCO)c(=O)c12 [compound 639]
54 nM	CC(C)(C)Nc1nc(Nc2cc(C(C)(C)O)ncn2)cc2ccn(C[C@H](O)CO)c(=O)c12 [compound 740]
59 nM	CC(C)(C)Nc1nc(Nc2cc(CN)ccn2)cc2ccn(CCO)c(=O)c12 [compound 707]
236 nM	[2H]C([2H])([2H])n1ccc2cc(Nc3cc(Cl)ccn3)nc(NC[C@@H]3CCCO3)c2c1=O [compound 1052]
291 nM	CC(C)(C)Nc1nc(Nc2cc(-c3ccccn3)ccn2)cc2ccn(CCO)c(=O)c12 [compound 841]
55 nM	CC(C)n1ccc2cc(Nc3cc(C(C)(C)O)ccn3)nc(N[C@H]3CC[C@@H](O)CC3)c2c1=O [compound 706]
105 nM	CC(C)n1ccc2cc(Nc3c[n+]([O-])ccn3)nc(N[C@H]3CC[C@@H](O)CC3)c2c1=O [compound 1016]
50 nM	CCn1ccc2cc(Nc3cnccn3)nc(N[C@H]3CC[C@H](O)CC3)c2c1=O [compound 949]
< 1.17 nM	CC(C)(C)Nc1nc(Nc2cc(C(F)CO)ccn2)cc2ccn(CCO)c(=O)c12 (centres unmarked) [compound 872]

Same assay, conditions: read-out: Syk Enzyme IC50

IC50	SMILES
266 nM	O=c1[nH]ccc2cc(-c3cncnc3)nc(Nc3ccc([C@H]4CC[C@@H](N5CCOCC5)CC4)cc3)c12 [compound 10]
97 nM	COC[C@H](C)Nc1nc(Nc2cc(C)ccn2)cc2cc[nH]c(=O)c12 [compound 530]
68 nM	C[C@H](CO)Nc1nc(Nc2ccccn2)cc2cc[nH]c(=O)c12 [compound 299]
16 nM	Cc1ccnc(Nc2cc3ccn(C)c(=O)c3c(Nc3ccc(C4CCN(C)CC4)cc3)n2)c1 [compound 309]
147 nM	CCn1ccc2cc(Nc3cnccn3)nc(NC(C)(C)C)c2c1=O [compound 465]
155 nM	C[C@@H](CO)Nc1nc(Nc2ccccn2)cc2cc[nH]c(=O)c12 [compound 298]
343 nM	Cc1ccnc(Nc2cc3cc[nH]c(=O)c3c(NC(C)C(C)C)n2)c1 (centres unmarked) [compound 268]
75 nM	CCOCC(=O)N1CCC(c2ccc(Nc3nc(-c4cncc(OC)n4)cc4cc[nH]c(=O)c34)cc2C)CC1 [compound 50]
278 nM	Cc1ccnc(Nc2cc3cc[nH]c(=O)c3c(N3CCOCC3)n2)c1 [compound 272]
29 nM	COCCN1CCN(c2n[nH]c3cc(Nc4nc(-c5cncc(OC)n5)cc5cc[nH]c(=O)c45)ccc23)CC1 [compound 217]
200 nM	CC(C)Nc1nc(Nc2cnccn2)cc2ccn(CCN3CCOCC3)c(=O)c12 [compound 320]
41 nM	Cc1cc(Nc2nc(CCO)cc3cc[nH]c(=O)c23)ccc1C1CCN(C2CC2)CC1 [compound 246]
20 nM	Cc1ccnc(Nc2cc3cc[nH]c(=O)c3c(N[C@H](C)CO)n2)c1 [compound 295]
443 nM	CC[C@H](C)Nc1nc(Nc2cc(C)ccn2)cc2cc[nH]c(=O)c12 [compound 283]
8440 nM	Cc1cc(Nc2nc(Nc3ccc(C(F)(F)F)cn3)cc3cc[nH]c(=O)c23)ccc1N1CCO[C@H](C)C1 [compound 583]
120 nM	COc1ncc(-c2cc3c(F)c[nH]c(=O)c3c(Nc3ccc(N4CCOCC4)cc3)n2)cn1 [compound 430]
301 nM	CC[C@H](C)Nc1nc(-c2cnc(N)nc2)cc2cc[nH]c(=O)c12 [compound 187]
153 nM	Cc1ccnc(Nc2cc3ccn(C)c(=O)c3c(NC(C)C)n2)c1 [compound 508]

IC50	SMILES
75 nM	COCC(=O)N1CCC(c2ccc(Nc3nc(-c4cncc(OC)n4)cc4cc[nH]c(=O)c34)cc2C)CC1 [compound 49]
40 nM	COc1cncc(-c2cc3cc[nH]c(=O)c3c(Nc3ccc(C4CCN(CC(N)=O)CC4)c(C)c3)n2)n1 [compound 134]
604 nM	CCNC(=O)c1ccc(Nc2nc(Nc3cnccn3)cc3ccn(C)c(=O)c23)cc1 [compound 381]
100 nM	O=c1[nH]ccc2cc(Nc3cnccn3)nc(Nc3ccc(N4CCOCC4)cc3)c12 [compound 461]
12 nM	Cc1ncc(-c2cc3cc[nH]c(=O)c3c(Nc3ccc(C4CCN(CCCF)CC4)c(C)c3)n2)cn1 [compound 72]
253 nM	CC(=O)c1cc2cc[nH]c(=O)c2c(Nc2ccc(C3CCN(C4CC4)CC3)c(C)c2)n1 [compound 221]
63 nM	Cc1ccnc(Nc2cc3cc[nH]c(=O)c3c(NC[C@@H]3CCCO3)n2)c1 [compound 505]
53 nM	COc1cncc(-c2cc3cc[nH]c(=O)c3c(Nc3ccc(CCN4CCN5CCCC5C4)cc3)n2)n1 (centres unmarked) [compound 7]
16 nM	CCN1CCN(CCc2ccc(Nc3nc(Nc4ccc(C(=O)O)cn4)cc4cc[nH]c(=O)c34)cc2)CC1 [compound 581]
962 nM	CCn1ccc2cc(Nc3cc(Cl)ccn3)nc(NCC(F)(F)F)c2c1=O [compound 592]
4 nM	COc1cncc(-c2cc3cc[nH]c(=O)c3c(Nc3ccc(C4CCN(CC5CC5)CC4)c(C)c3)n2)n1 [compound 81]
48 nM	CCN1CCN(Cc2n[nH]c3cc(Nc4nc(-c5cnc(OC)nc5)cc5cc[nH]c(=O)c45)ccc23)CC1 [compound 204]
967 nM	Cc1ccnc(Nc2cc3cc[nH]c(=O)c3c(N3CC[C@@H](O)C3)n2)c1 [compound 401]
40 nM	COc1cncc(-c2cc3cc[nH]c(=O)c3c(Nc3ccc(C4CCN(C(=O)[C@H](C)OC)CC4)c(C)c3)n2)n1 [compound 58]
37 nM	Cc1ccc(-c2cc3cc[nH]c(=O)c3c(Nc3ccc(C4CCN(CCCF)CC4)c(C)c3)n2)cn1 [compound 46]
206 nM	CC(C)Nc1nc(Nc2ccc(C(N)=O)cn2)cc2cc[nH]c(=O)c12 [compound 540]
3500 nM	CCN1CCC[C@H]1CNc1nc(Nc2cc(C)ccn2)cc2cc[nH]c(=O)c12 [compound 590]
3870 nM	Cn1ccc2cc(Nc3ccc(C#N)cn3)nc(N)c2c1=O [compound 573]
